The target of the test is T1, Papain (Carica papaya, UniProt P00784).
T1 sequence (P00784 whole entry): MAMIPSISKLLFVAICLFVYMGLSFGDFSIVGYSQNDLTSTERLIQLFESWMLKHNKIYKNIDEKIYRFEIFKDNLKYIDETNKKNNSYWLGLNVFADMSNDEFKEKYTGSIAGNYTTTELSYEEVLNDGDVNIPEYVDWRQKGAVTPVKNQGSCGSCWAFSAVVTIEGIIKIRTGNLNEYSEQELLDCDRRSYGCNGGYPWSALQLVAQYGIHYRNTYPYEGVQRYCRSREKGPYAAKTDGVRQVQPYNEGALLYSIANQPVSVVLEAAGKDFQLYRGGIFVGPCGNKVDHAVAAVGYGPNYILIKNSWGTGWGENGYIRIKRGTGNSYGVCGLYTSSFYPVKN
Nature of the test: Inhibition of papaya papain using Z-Phe-Arg-pNA substrate by spectrophotometry.

For orientation: pIC50 means the IC50 on a negative log10 scale, so that one unit is a factor of ten. The low end stands for a high IC50, the high end for a low IC50.

Molecules are shown by their SMILES. pIC50: −log10 of the molar value.

`N#CCNC(=O)[C@H](Cc1ccccc1)NC(=O)c1ccc(-c2ccccc2)cc1` gave a negative logarithm of the IC50 (pIC50) of 6.66. Next, `CC(C)C[C@H](NC(=O)c1ccc(CN=[N+]=[N-])cc1)C(=O)NCC#N`: 5.64; `CCCC[C@H](NC(=O)c1ccc(CN=[N+]=[N-])cc1)C(=O)NCC#N`: 5.15; `N#CCNC(=O)[C@H](Cc1ccccc1)NC(=O)c1ccc(CN=[N+]=[N-])cc1`: 6.57. Next, `N#CCNC(=O)[C@H](Cc1ccc(O)cc1)NC(=O)c1ccc(CN=[N+]=[N-])cc1`: 6.55.

`N#CCNC(=O)[C@H](CCc1ccccc1)NC(=O)c1ccc(CN=[N+]=[N-])cc1` gave a pIC50 of 6.15. Turning to `N#CCNC(=O)[C@H](CCc1ccc(O)cc1)NC(=O)c1ccc(CN=[N+]=[N-])cc1`, the pIC50 was 6.01. Next, `CC(C)C[C@H](NC(=O)c1ccc(-c2ccc(CN=[N+]=[N-])cc2)cc1)C(=O)NCC#N`: 5.80; `N#CCNC(=O)[C@H](Cc1ccccc1)NC(=O)c1ccc(-c2ccc(CN=[N+]=[N-])cc2)cc1`: 4.86; `N#CCNC(=O)[C@H](Cc1ccc(O)cc1)NC(=O)c1ccc(-c2ccc(CN=[N+]=[N-])cc2)cc1`: 4.29. Next, `CC(C)C[C@H](NC(=O)CN=[N+]=[N-])C(=O)N[C@@H](CC(C)C)C(=O)NCC#N`: 5.57; `CC(C)C[C@H](NC(=O)CN=[N+]=[N-])C(=O)N[C@@H](Cc1ccccc1)C(=O)NCC#N`: 5.65; `N#CCNC(=O)[C@H](Cc1ccccc1)NC(=O)[C@H](Cc1ccccc1)NC(=O)CN=[N+]=[N-]`: 5.40. Next, `N#CCNC(=O)[C@H](Cc1ccccc1)NC(=O)c1ccc(Cn2nnc3c2CC[C@H]2[C@@H](CC3)[C@H]2COC(=O)NCCOCCOCCN)cc1`: 6.46; `N#CCNC(=O)[C@H](Cc1ccccc1)NC(=O)c1ccc(Cn2nnc3c2-c2ccccc2CN(C(=O)CCCC(=O)NCCOCCOCCN)c2ccccc2-3)cc1`: 5.22; `N#CCNC(=O)[C@H](Cc1ccccc1)NC(=O)c1ccccc1`: 6.44.
